Data: ChEMBL document CHEMBL4680171, “Oxadiazolylthiazoles as novel and selective antifungal agents” (Eur J Med Chem, 2020)
≈ marks a conversion by molar mass, not a printed value. Calls of active or inactive are those of the source. The rule behind the calls is not given here.

What was measured:
Staphylococcus aureus = assay: Antibacterial activity against methicillin resistant Staphylococcus aureus subsp. aureus USA300 assessed as reduction in bacterial growth by CLSI based broth microdilution method; format: functional
Escherichia coli [1] = assay: Antibacterial activity against Escherichia coli JW55031 harboring tolC mutation assessed as reduction in bacterial growth by CLSI based broth microdilution method; format: functional
Escherichia coli [2] = assay: Antibacterial activity against Escherichia coli BW25113 assessed as reduction in bacterial growth by CLSI based broth microdilution method; format: functional
Clostridioides difficile = assay: Antibacterial activity against Clostridium difficile BAA1870 assessed as reduction in bacterial growth by CLSI based broth microdilution method; format: functional
Candida albicans [3] = assay: Antifungal activity against Candida albicans SS5314 assessed as reduction in fungal growth by CLSI based broth microdilution method; format: functional
Candida albicans [4] = assay: Antifungal activity against Candida albicans ATCC 10231 assessed as reduction in fungal growth incubated for 24 hrs by CLSI based broth microdilution method; format: functional
Candida albicans [5] = assay: Antifungal activity against fluconazole-resistant Candida albicans NR29448 assessed as reduction in fungal growth incubated for 24 hrs by CLSI based broth microdilution method; format: functional
[Candida] auris [6] = Antifungal activity against fluconazole-resistant Candida auris 381 assessed as reduction in fungal growth incubated for 24 hrs by CLSI based broth microdilution method; format: functional; settings: Candidozyma auris
[Candida] auris [7] = Antifungal activity against fluconazole-resistant Candida auris 383 assessed as reduction in fungal growth incubated for 24 hrs by CLSI based broth microdilution method; format: functional; settings: Candidozyma auris
[Candida] auris [8] = Antifungal activity against fluconazole-resistant Candida auris 384 assessed as reduction in fungal growth incubated for 24 hrs by CLSI based broth microdilution method; format: functional; settings: Candidozyma auris
Nakaseomyces glabratus [9] = assay: Antifungal activity against Candida glabrata ATCC 66032 assessed as reduction in fungal growth incubated for 24 hrs by CLSI based broth microdilution method; format: functional
Nakaseomyces glabratus [10] = assay: Antifungal activity against Candida glabrata ATCC MYA-2950 assessed as reduction in fungal growth incubated for 24 hrs by CLSI based broth microdilution method; format: functional
Candida parapsilosis [11] = assay: Antifungal activity against Candida parapsilosis ATCC 22019 assessed as reduction in fungal growth incubated for 24 hrs by CLSI based broth microdilution method; format: functional; settings: Lodderomyces parapsilosis
Candida parapsilosis [12] = assay: Antifungal activity against Candida parapsilosis CAB 502638 assessed as reduction in fungal growth incubated for 24 hrs by CLSI based broth microdilution method; format: functional; settings: Lodderomyces parapsilosis
Pichia kudriavzevii [13] = assay: Antifungal activity against Candida krusei CAB 396420 assessed as reduction in fungal growth incubated for 24 hrs by CLSI based broth microdilution method; format: functional
Pichia kudriavzevii [14] = assay: Antifungal activity against Candida krusei ATCC 34135 assessed as reduction in fungal growth incubated for 24 hrs by CLSI based broth microdilution method; format: functional
Cryptococcus neoformans [15] = assay: Antifungal activity against Cryptococcus neoformans NR41298 assessed as reduction in fungal growth incubated for 48 hrs by CLSI based broth microdilution method; format: functional
Cryptococcus neoformans [16] = assay: Antifungal activity against Cryptococcus neoformans NR41300 assessed as reduction in fungal growth incubated for 48 hrs by CLSI based broth microdilution method; format: functional
Cryptococcus neoformans [17] = assay: Antifungal activity against Cryptococcus neoformans NR48770 assessed as reduction in fungal growth incubated for 48 hrs by CLSI based broth microdilution method; format: functional
[18] = system: Cryptococcus gattii species complex; assay: Antifungal activity against Cryptococcus gattii NR43210 assessed as reduction in fungal growth incubated for 48 hrs by CLSI based broth microdilution method; format: functional, Cryptococcus bacillisporus
[19] = system: Cryptococcus gattii species complex; assay: Antifungal activity against Cryptococcus gattii NR43209 assessed as reduction in fungal growth incubated for 48 hrs by CLSI based broth microdilution method; format: functional, Cryptococcus bacillisporus
Lactobacillus gasseri = assay: Antibacterial activity against Lactobacillus gasseri HM-400 assessed as reduction in bacterial growth by CLSI based assay
Lacticaseibacillus casei = assay: Antibacterial activity against Lactobacillus casei HM-334 assessed as reduction in bacterial growth by CLSI based assay; format: organism-based
Lactobacillus crispatus = assay: Antibacterial activity against Lactobacillus crispatus HM-370 assessed as reduction in bacterial growth by CLSI based assay
[20] = Cytotoxicity against African green monkey Vero cells assessed as reduction in cell viability incubated for 2 hrs by MTS assay; format: cell-based; settings: chlorocebus sabaeus
Candida albicans [21] = assay: Fungicidal activity against Candida albicans SS5314 assessed as eradication of fungal count at 5XMIC measured after 2 hrs by time kill assay relative to control; format: functional
Vero = assay: Cytotoxicity against African green monkey Vero cells assessed as reduction in cell viability at 16 ug/ml incubated for 2 hrs by MTS assay; format: cell-based; settings: chlorocebus sabaeus, dose 16 µg/ml
Candida albicans [22] = assay: Antifungal activity against Candida albicans SS5314 assessed as reduction in fungal growth incubated for 24 hrs by CLSI based broth microdilution method; format: functional
Aspergillus fumigatus [23] = assay: Antifungal activity against Aspergillus fumigatus NR 35303 assessed as reduction in fungal growth incubated for 24 hrs by CLSI based broth microdilution method; format: functional
Aspergillus fumigatus [24] = assay: Antifungal activity against Aspergillus fumigatus NR 35304 assessed as reduction in fungal growth incubated for 24 hrs by CLSI based broth microdilution method; format: functional
Candida albicans [25] = assay: Antibiofilm activity against Candida albicans NR29448 assessed as reduction in biofilm formation at 0.5XMIC incubated for 24 hrs by crystal violet staining based assay relative to control; format: functional
Candida albicans [26] = assay: Antibiofilm activity against 24 hrs preformed biofilm of Candida albicans NR29448 assessed as disruption of mature biofilm at 64 ug/ml incubated for 24 hrs by crystal violet staining based spectrophotometry relative to control; format: functional; settings: dose 64.0 µg/ml
Candida albicans [27] = assay: Fungistatic activity against Candida albicans SS5314 at 5 to 10x MIC measured for 36 hrs by time kill assay; format: functional, organism-based
Candida albicans [28] = assay: Antifungal activity against Candida albicans SS5314 assessed as reduction in fungal growth measured after 10 passages by CLSI based broth microdilution method; format: functional, organism-based

## Cc1nc(-c2ccc(C(C)(C)C)cc2)sc1-c1nnc(NCCCN)o1
Staphylococcus aureus
  MIC: > 64 µg/mL
Escherichia coli [1]
  MIC: > 64 µg/mL
Escherichia coli [2]
  MIC: > 64 µg/mL
Clostridioides difficile
  MIC: 64 µg/mL (≈ 172 µM)
Candida albicans [3]
  MIC: 16 µg/mL (≈ 43.1 µM)

## Cc1nc(-c2ccc(C(C)(C)C)cc2)sc1-c1nnc(N2CCC[C@@H]2C(N)=O)o1
Staphylococcus aureus
  MIC: > 64 µg/mL
Escherichia coli [1]
  MIC: > 64 µg/mL
Escherichia coli [2]
  MIC: > 64 µg/mL
Clostridioides difficile
  MIC: 32 µg/mL (≈ 77.8 µM)
Candida albicans [3]
  MIC: > 64 µg/mL

## Cc1nc(-c2ccc(C(C)(C)C)cc2)sc1-c1nnc(N2CCC[C@H]2C(N)=O)o1
Staphylococcus aureus
  MIC: > 64 µg/mL
Escherichia coli [1]
  MIC: 64 µg/mL (≈ 156 µM)
Escherichia coli [2]
  MIC: > 64 µg/mL
Clostridioides difficile
  MIC: 32 µg/mL (≈ 77.8 µM)
Candida albicans [3]
  MIC: > 64 µg/mL

## Cc1nc(-c2ccc(C(C)(C)C)cc2)sc1-c1nnc(NC[C@@H](O)CO)o1
Staphylococcus aureus
  MIC: > 64 µg/mL
Escherichia coli [1]
  MIC: > 64 µg/mL
Escherichia coli [2]
  MIC: > 64 µg/mL
Clostridioides difficile
  MIC: 32 µg/mL (≈ 82.4 µM)
Candida albicans [3]
  MIC: > 64 µg/mL

## Cc1nc(-c2ccc(C(C)(C)C)cc2)sc1-c1nnc(NCC(O)CO)o1 (centres undefined)
Staphylococcus aureus
  MIC: > 64 µg/mL
Escherichia coli [1]
  MIC: > 64 µg/mL
Escherichia coli [2]
  MIC: > 64 µg/mL
Clostridioides difficile
  MIC: 32 µg/mL (≈ 82.4 µM)
Candida albicans [3]
  MIC: > 64 µg/mL

## Cc1nc(-c2ccc(C(C)(C)C)cc2)sc1-c1nnc(NCC2CCCCN2)o1 (centres undefined)
Staphylococcus aureus
  MIC: 32 µg/mL (≈ 77.8 µM)
Escherichia coli [1]
  MIC: 16 µg/mL (≈ 38.9 µM)
Escherichia coli [2]
  MIC: > 64 µg/mL
Clostridioides difficile
  MIC: 16 µg/mL (≈ 38.9 µM)
Candida albicans [3]
  MIC: > 64 µg/mL

## Cc1nc(-c2ccc(C(C)(C)C)cc2)sc1-c1nnc(N2CCC[C@@H]2CO)o1
Staphylococcus aureus
  MIC: > 64 µg/mL
Escherichia coli [1]
  MIC: > 64 µg/mL
Escherichia coli [2]
  MIC: > 64 µg/mL
Clostridioides difficile
  MIC: 32 µg/mL (≈ 80.3 µM)
Candida albicans [3]
  MIC: > 64 µg/mL

## Cc1nc(-c2ccc(C(C)(C)C)cc2)sc1-c1nnc(N[C@@H]2CCCC[C@H]2N)o1 (relative stereo)
Staphylococcus aureus
  MIC: 64 µg/mL (≈ 156 µM)
Escherichia coli [1]
  MIC: > 64 µg/mL
Escherichia coli [2]
  MIC: > 64 µg/mL
Clostridioides difficile
  MIC: 16 µg/mL (≈ 38.9 µM)
Candida albicans [3]
  MIC: 64 µg/mL (≈ 156 µM)

## C[C@@H]1[C@H](O)[C@@H](C)/C=C/C=C/C=C/C=C/C=C/C=C/C=C/[C@H](O[C@@H]2O[C@H](C)[C@@H](O)[C@H](N)[C@@H]2O)C[C@@H]2O[C@](O)(C[C@@H](O)C[C@@H](O)[C@H](O)CC[C@@H](O)C[C@@H](O)CC(=O)O[C@H]1C)C[C@H](O)[C@H]2C(=O)O [AMPHOTERICIN B]
Candida albicans [3]
  MIC: 1 µg/mL (≈ 1.08 µM)
Candida albicans [4]
  MIC: 1 µg/mL (≈ 1.08 µM)
Candida albicans [5]
  MIC: 1 µg/mL (≈ 1.08 µM)
[Candida] auris [6]
  MIC: 0.5 µg/mL (≈ 0.541 µM)
[Candida] auris [7]
  MIC: 1 µg/mL (≈ 1.08 µM)
[Candida] auris [8]
  MIC: 2 µg/mL (≈ 2.16 µM)
Nakaseomyces glabratus [9]
  MIC: 2 µg/mL (≈ 2.16 µM)
Nakaseomyces glabratus [10]
  MIC: 1 µg/mL (≈ 1.08 µM)
Candida parapsilosis [11]
  MIC: 0.5 µg/mL (≈ 0.541 µM)
Candida parapsilosis [12]
  MIC: 0.5 µg/mL (≈ 0.541 µM)
Pichia kudriavzevii [13]
  MIC: 2 µg/mL (≈ 2.16 µM)
Pichia kudriavzevii [14]
  MIC: 2 µg/mL (≈ 2.16 µM)
Cryptococcus neoformans [15]
  MIC: 1 µg/mL (≈ 1.08 µM)
Cryptococcus neoformans [16]
  MIC: 1 µg/mL (≈ 1.08 µM)
Cryptococcus neoformans [17]
  MIC: 1 µg/mL (≈ 1.08 µM)
[18]
  MIC: 1 µg/mL (≈ 1.08 µM)
[19]
  MIC: 1 µg/mL (≈ 1.08 µM)
Lactobacillus gasseri
  MIC: > 128 µg/mL
Lacticaseibacillus casei
  MIC: > 128 µg/mL
Lactobacillus crispatus
  MIC: > 128 µg/mL
[20]
  CC50 at 2 h: 8 µg/mL (≈ 8.66 µM)
Candida albicans [21]
  Activity: 100%
Vero
  Activity: Toxic
Candida albicans [22]
  MIC: 1 µg/mL (≈ 1.08 µM)

## OC(Cn1cncn1)(Cn1cncn1)c1ccc(F)cc1F [FLUCONAZOLE]
Candida albicans [3]
  MIC: > 64 µg/mL
Candida albicans [4]
  MIC: 1 µg/mL (≈ 3.27 µM)
Candida albicans [5]
  MIC: > 128 µg/mL
[Candida] auris [6]
  MIC: 2 µg/mL (≈ 6.53 µM)
[Candida] auris [7]
  MIC: 128 µg/mL (≈ 418 µM)
[Candida] auris [8]
  MIC: > 128 µg/mL
Nakaseomyces glabratus [9]
  MIC: 8 µg/mL (≈ 26.1 µM)
Nakaseomyces glabratus [10]
  MIC: 16 µg/mL (≈ 52.2 µM)
Candida parapsilosis [11]
  MIC: 1 µg/mL (≈ 3.27 µM)
Candida parapsilosis [12]
  MIC: 0.5 µg/mL (≈ 1.63 µM)
Pichia kudriavzevii [13]
  MIC: 16 µg/mL (≈ 52.2 µM)
Pichia kudriavzevii [14]
  MIC: 16 µg/mL (≈ 52.2 µM)
Cryptococcus neoformans [15]
  MIC: 2 µg/mL (≈ 6.53 µM)
Cryptococcus neoformans [16]
  MIC: 1 µg/mL (≈ 3.27 µM)
Cryptococcus neoformans [17]
  MIC: 2 µg/mL (≈ 6.53 µM)
[18]
  MIC: 4 µg/mL (≈ 13.1 µM)
[19]
  MIC: 4 µg/mL (≈ 13.1 µM)
Aspergillus fumigatus [23]
  MIC: > 64 µg/mL
Aspergillus fumigatus [24]
  MIC: > 64 µg/mL
Lactobacillus gasseri
  MIC: > 128 µg/mL
Lacticaseibacillus casei
  MIC: > 128 µg/mL
Lactobacillus crispatus
  MIC: > 128 µg/mL
Candida albicans [25]
  inhibition (INH): 50%
Candida albicans [26]
  Activity: inactive
Candida albicans [27]
  Activity: Active
Candida albicans [28]
  Activity: Active
Candida albicans [22]
  MIC: 1 µg/mL (≈ 3.27 µM)

## CCC(C)n1ncn(-c2ccc(N3CCN(c4ccc(OCC5COC(Cn6cncn6)(c6ccc(Cl)cc6Cl)O5)cc4)CC3)cc2)c1=O (centres undefined) [ITRACONAZOLE]
Aspergillus fumigatus [23]
  MIC: 1 µg/mL (≈ 1.42 µM)
Aspergillus fumigatus [24]
  MIC: 1 µg/mL (≈ 1.42 µM)

## CC(=O)NC[C@H]1CN(c2ccc(N3CCOCC3)c(F)c2)C(=O)O1 [LINEZOLID]
Staphylococcus aureus
  MIC: 1 µg/mL (≈ 2.96 µM)
Escherichia coli [1]
  MIC: 8 µg/mL (≈ 23.7 µM)
Escherichia coli [2]
  MIC: > 64 µg/mL
Clostridioides difficile
  MIC: 1 µg/mL (≈ 2.96 µM)

## GENTAMICIN
Escherichia coli [1]
  MIC: < 0.5 µg/mL
Escherichia coli [2]
  MIC: < 0.5 µg/mL
